From patent publication US20130060543A1, “SYSTEMS AND METHODS FOR REVERSE ENGINEERING MODELS OF BIOLOGICAL NETWORKS” (TRUSTEES OF BOSTON UNIVERSITY, priority 2002, published 2013) come the findings set out here.

The structures appear in SMILES notation.

For this assay, the system named is SOS test network genes. Kind of assay: RNA expression changes of SOS test network genes after MMC perturbation (real-time qPCR). It is filed as cell-based, E. coli.

As for `CO[C@@]12[C@H](COC(N)=O)C3=C(C(=O)C(C)=C(N)C3=O)N1C[C@@H]1N[C@@H]12` [MMC, Mitomycin C], the “Transcriptional response of all genes in the test network” value (0.75 μg/ml MMC vs 0.5 μg/ml MMC baseline) is given as “statistically significant upregulation”. Further, the “Relative RNA expression change xi=[RNAi]pert/[RNAi]cont−1, dinI” value (0.75 μg/ml MMC vs control cells at 0.5 μg/ml MMC, gene dinI) is on record as 0.334. The “Relative RNA expression change xi=[RNAi]pert/[RNAi]cont−1, lexA” value (0.75 μg/ml MMC vs control cells at 0.5 μg/ml MMC, gene lexA) is recorded as 0.321. In addition, the “Relative RNA expression change xi=[RNAi]pert/[RNAi]cont−1, recA” value (0.75 μg/ml MMC vs control cells at 0.5 μg/ml MMC, gene recA) amounted to 0.496. Moreover, under “0.75 μg/ml MMC vs control cells at 0.5 μg/ml MMC, gene recF”, the “Relative RNA expression change xi=[RNAi]pert/[RNAi]cont−1, recF” value amounted to 0.523. Also, the “Relative RNA expression change xi=[RNAi]pert/[RNAi]cont−1, rpoD” value (0.75 μg/ml MMC vs control cells at 0.5 μg/ml MMC, gene rpoD) stood at 0.327. Also, for the setting “0.75 μg/ml MMC vs control cells at 0.5 μg/ml MMC, gene rpoH”, the “Relative RNA expression change xi=[RNAi]pert/[RNAi]cont−1, rpoH” value turned out to be 0.786. For the same compound, under “0.75 μg/ml MMC vs control cells at 0.5 μg/ml MMC, gene rpoS”, the “Relative RNA expression change xi=[RNAi]pert/[RNAi]cont−1, rpoS” value was 0.672. Further, the “Relative RNA expression change xi=[RNAi]pert/[RNAi]cont−1, ssb” value (0.75 μg/ml MMC vs control cells at 0.5 μg/ml MMC, gene ssb) is reported as 0.251. The “Relative RNA expression change xi=[RNAi]pert/[RNAi]cont−1, umuDC” value (0.75 μg/ml MMC vs control cells at 0.5 μg/ml MMC, gene umuDC) was 0.834.
